The text below walks through data of patent US20090197880A1 (Genelabs Technologies, Inc., priority 2007, published 2009).

A short description of the first assay: HCV replicon assay (luciferase) in ET (Huh-lucubineo-ET) cell line. It is filed as cell-based. The note with it: Hepatitis C virus; tested at 5 μM; inhibition of replication relative to no compound control; ET replicon cells, luciferase 48-72 hours. An excerpt: A cell line, ET (Huh-lucubineo-ET) was used for screening of compounds, or pharmaceutically acceptable salts or solvates, described herein for inhibition of HCV RNA dependent RNA polymerase. The ET cell line was stably transfected with RNA transcripts harboring a I389luc-ubi-neo/NS3-3′/ET; replicon with firefly luciferase-ubiquitin-neomycin phosphotransferase fusion protein and EMCV-IRES driven NS3-5B polyprotein containing the cell culture adaptive mutations (E1202G; T1280I; K1846T) (Krieger at al, 2001 and unpublished). The ET cells were grown in DMEM, supplemented with 10% fetal calf serum, 2 mM Glutamine, Penicillin (100 IU/mL)/Streptomycin (100 μg/mL), 1× nonessential amino acids, and 250 μg/mL G418 (“Geneticin”). They were all available through Life Technologies (Bethesda, Md.). The cells were plated at 0.5−1.0×10^4 cells/well in the 96 well plates and incubated for 24 hrs before adding the test compounds. […] Luciferase activity was measured 48-72 hours later by adding a lysis buffer and the substrate (Catalog number Glo-lysis buffer E2661 and Bright-Glo luciferase system E2620 Promega, Madison, Wis.). Cells should not be too confluent during the assay. Percent inhibition of replication was plotted relative to no compound control. Under the same condition, cytotoxicity of the compounds was determined using cell proliferation reagent, WST-1 (Roche, Germany). The compounds showing antiviral activities, but no significant cytotoxicities were chosen to determine the EC50 and TC50, the effective concentration and toxic concentration at which 50% of the maximum inhibition is observed. For these determinations, 6 dilutions of each compound were used. Compounds were typically diluted 3 fold to span a concentration range of 250 fold. EC50 and similarly TC50 values were calculated by fitting % inhibition at each concentration to the following equation:
% inhibition=100%/[(EC50/[I])^b+1]
where b is Hill's coefficient.
(In general: A replicon is a self-replicating genome or part of one, used to study replication in cells.)
Turning to `Fc1cccc(-c2nc3cnn(Cc4cc(-c5ccc(C(F)(F)F)cc5C(F)(F)F)no4)cc-3n2)c1F` [Compound 103, 5-[3-(2,4-Bis-trifluoromethyl-phenyl)-isoxazol-5-ylmethyl]-2-(2,3-difluoro-phenyl)-5H-imidazo[4,5-d]pyridazine], the inhibition at 5 µM was 100%.
Still for that read-out and setting: the figure for `Fc1cccc(-c2nc3cnn(Cc4cc(-c5ccc(Cl)cc5)no4)cc-3n2)c1F` [Compound 104, 5-[3-(4-Chloro-phenyl)-isoxazol-5-ylmethyl]-2-(2,3-difluoro-phenyl)-5H-imidazo[4,5-d]pyridazine] is 99.7%.
`CCCCCOc1ccc(-c2cc(Cn3cc4nc(-c5ccccc5F)nc-4cn3)on2)cc1` [Compound 107, 2-(2-Fluoro-phenyl)-5-[3-(4-pentyloxy-phenyl)-isoxazol-5-ylmethyl]-5H-imidazo[4,5-d]pyridazine] yielded an inhibition at 5 µM of 98.4%.
In turn, `CCCCOc1ccc(-c2cc(Cn3cc4nc(-c5ccccc5F)nc-4cn3)on2)cc1` [Compound 106, 5-[3-(4-Butoxy-phenyl)-isoxazol-5-ylmethyl]-2-(2-fluoro-phenyl)-5H-imidazo[4,5-d]pyridazine] registered an inhibition at 5 µM of 99.3%.

The assay is the same for the next values; noted with them: Hepatitis C virus; tested at 10 μM; inhibition of replication relative to no compound control; ET replicon cells, luciferase 48-72 hours; read-out: % inhition at 10 μM.
For the molecule `FC(F)(F)c1ccc(-c2cc(Cn3cc4nc(NCc5ccccc5)nc-4cn3)on2)c(C(F)(F)F)c1` [Compound 251, Benzyl-{5-[3-(2,4-bis-trifluoromethyl-phenyl)-isoxazol-5-ylmethyl]-5H-imidazo[4,5-d]pyridazin-2-yl}-amine], the inhibition at 10 µM amounted to 97.7%.
Still for that read-out and setting: as for `Fc1cccc(-c2nc3cnn(Cc4cc(-c5ccc(OC(F)(F)F)cc5)no4)cc-3n2)c1F` [Compound 214, 2-(2,3-Difluoro-phenyl)-5-[3-(4-trifluoromethoxy-phenyl)-isoxazol-5-ylmethyl]-5H-imidazo[4,5-d]pyridazine], the figure is 98.5%.
Consider `Fc1cccc(-c2nc3cnn(Cc4onc(-c5ccc(C(F)(F)F)cc5C(F)(F)F)c4Br)cc-3n2)c1F` [Compound 292, 5-[3-(2,4-Bis-trifluoromethyl-phenyl)-4-bromo-isoxazol-5-ylmethyl]-2-(2,3-difluoro-phenyl)-5H-imidazo[4,5-d]pyridazine], for which the inhibition at 10 µM is 64.1%.
Regarding `COc1ccc(-c2cc(Cn3cc4nc(-c5cccc(F)c5F)nc-4cn3)on2)c(C(=O)O)c1` [Compound 266, 2-{5-[2-(2,3-Difluoro-phenyl)-imidazo[4,5-d]pyridazin-5-ylmethyl]-isoxazol-3-yl}-5-methoxy-benzoic Acid], the inhibition at 10 µM is 10%.
On the same count and under the same terms, as for `Fc1cccc(-c2nc3cnn(Cc4cc(-c5ccc(OCc6ccccc6)cc5)no4)cc-3n2)c1F` [Compound 173, 5-[3-(4-Benzyloxy-phenyl)-isoxazol-5-ylmethyl]-2-(2,3-difluoro-phenyl)-5H-imidazo[4,5-d]pyridazine], the figure is 98.7%.
Same read-out and setting: as for `CC(Nc1nc2cnn(Cc3cc(-c4ccc(C(F)(F)F)cc4C(F)(F)F)no3)cc-2n1)c1ccccc1` (stereo not shown) [Compound 258, {5-[3-(2,4-Bis-trifluoromethyl-phenyl)-isoxazol-5-ylmethyl]-5H-imidazo[4,5-d]pyridazin-2-yl}-(1-phenyl-ethyl)-amine], the figure is 40%.
Take `C#CCOc1ccc(-c2cc(Cn3cc4nc(-c5cccc(F)c5F)nc-4cn3)on2)cc1` [Compound 327]: the inhibition at 10 µM amounted to 99.7%.
On the same count and under the same terms, as for `Nc1nn(Cc2cc(-c3ccc(C(F)(F)F)cc3F)no2)cc2nc(-c3cccc(F)c3F)nc1-2` [Compound 236, 2-(2,3-Difluoro-phenyl)-6-[3-(2-fluoro-4-trifluoromethyl-phenyl)-isoxazol-5-ylmethyl]-6H-imidazo[4,5-d]pyridazin-4-ylamine], the figure is 76.8%; as for `Nc1nn(Cc2cc(-c3ccc(C(F)(F)F)cc3C(F)(F)F)no2)c(N)c2nc(-c3cccc(F)c3F)nc1-2` [Compound 237, 5-[3-(2,4-Bis-trifluoromethyl-phenyl)-isoxazol-5-ylmethyl]-2-(2,3-difluoro-phenyl)-5H-imidazo[4,5-d]pyridazine-4,7-diamine], 1.73%; as for `Fc1cccc(-c2nc3cnn(Cc4cc(-c5ccc(CCCC(F)(F)F)cc5)no4)cc-3n2)c1F` [Compound 330, 2-(2,3-Difluoro-phenyl)-5-{3-[4-(4,4,4-trifluoro-butyl)-phenyl]-isoxazol-5-ylmethyl}-5H-imidazo[4,5-d]pyridazine], 99.7%.
On the same count and under the same terms, as for `Fc1cccc(-c2nc3cnn(Cc4cc(-c5ccc(C(F)(F)F)cc5C(F)(F)F)no4)cc-3n2)c1F` [Compound 103, 5-[3-(2,4-Bis-trifluoromethyl-phenyl)-isoxazol-5-ylmethyl]-2-(2,3-difluoro-phenyl)-5H-imidazo[4,5-d]pyridazine], the figure is 100%; as for `Fc1ccccc1-c1nc2cnn(Cc3cc(-c4ccc(I)cc4)no3)cc-2n1` [Compound 282, 2-(2-Fluoro-phenyl)-5-[3-(4-iodo-phenyl)-isoxazol-5-ylmethyl]-5H-imidazo[4,5-d]pyridazine], 83.4%.
On the same count and under the same terms, the figure for `COc1cc(-c2cc(Cn3cc4nc(-c5cccc(F)c5F)nc-4cn3)on2)ccc1OC(F)F` [Compound 163, 5-[3-(4-Difluoromethoxy-3-methoxy-phenyl)-isoxazol-5-ylmethyl]-2-(2,3-difluoro-phenyl)-5H-imidazo[4,5-d]pyridazine] is 62%; for `Fc1cccc(-c2nc3cnn(Cc4cc(-c5ccc(Cl)cc5)no4)cc-3n2)c1F` [Compound 104, 5-[3-(4-Chloro-phenyl)-isoxazol-5-ylmethyl]-2-(2,3-difluoro-phenyl)-5H-imidazo[4,5-d]pyridazine] it is 99.7%; for `Fc1cccc(-c2nc3cnn(Cc4noc(-c5ccc(C(F)(F)F)cc5)n4)cc-3n2)c1F` [Compound 230, 2-(2,3-Difluoro-phenyl)-5-[5-(4-trifluoromethyl-phenyl)-[1,2,4]oxadiazol-3-ylmethyl]-5H-imidazo[4,5-d]pyridazine] it is 35.8%.
Regarding `CCCOC(=O)c1cc(-c2cc(Cn3cc4nc(-c5cccc(F)c5F)nc-4cn3)on2)ccc1OCCC` [Compound 197, 5-{5-[2-(2,3-Difluoro-phenyl)-imidazo[4,5-d]pyridazin-5-ylmethyl]-isoxazol-3-yl}-2-propoxy-benzoic acid propyl ester], the inhibition at 10 µM came to 54.1%.
Still for that read-out and setting: as for `FC(F)(F)c1ccc(-c2cc(Cn3cc4nc(Nc5ccccc5)nc-4cn3)on2)c(C(F)(F)F)c1` [Compound 248, {5-[3-(2,4-Bis-trifluoromethyl-phenyl)-isoxazol-5-ylmethyl]-5H-imidazo[4,5-d]pyridazin-2-yl}-phenyl-amine], the figure is 15.5%.
Turning to `Fc1cccc(-c2nc3cnn(Cc4cc(-c5ccc(-c6nnn[nH]6)cc5)no4)cc-3n2)c1F` [Compound 328, 2-(2,3-Difluoro-phenyl)-5-{3-[4-(1H-tetrazol-5-yl)-phenyl]-isoxazol-5-ylmethyl}-5H-imidazo[4,5-d]pyridazine], the inhibition at 10 µM stood at 55.5%.
Regarding `CCCCCOc1ccc(-c2cc(Cn3cc4nc(-c5ccccc5F)nc-4cn3)on2)cc1` [Compound 107, 2-(2-Fluoro-phenyl)-5-[3-(4-pentyloxy-phenyl)-isoxazol-5-ylmethyl]-5H-imidazo[4,5-d]pyridazine], the inhibition at 10 µM was 99.4%.
Still for that read-out and setting: as for `CCCOc1ccc(-c2cc(Cn3cc4nc(-c5cccc(F)c5F)nc-4cn3)on2)c(F)c1` [Compound 296, 2-(2,3-Difluoro-phenyl)-5-[3-(2-fluoro-4-propoxy-phenyl)-isoxazol-5-ylmethyl]-5H-imidazo[4,5-d]pyridazine], the figure is 99.5%.
On the same count and under the same terms, as for `Cc1ccc(-c2cc(Cn3cc4nc(-c5cccc(F)c5F)nc-4cn3)no2)nn1` [Compound 318, 2-(2,3-Difluoro-phenyl)-5-[5-(6-methyl-pyridazin-3-yl)-isoxazol-3-ylmethyl]-5H-imidazo[4,5-d]pyridazine], the figure is 50%.
With `Fc1cccc(-c2nc3cnn(Cc4cc(-c5ccc(OCCCC(F)(F)F)cc5)no4)cc-3n2)c1F` [Compound 326, 2-(2,3-Difluoro-phenyl)-5-{3-[4-(4,4,4-trifluoro-butoxy)-phenyl]-isoxazol-5-ylmethyl}-5H-imidazo[4,5-d]pyridazine], the inhibition at 10 µM was determined as 99.3%.
Consider `Cc1csc(-c2cc(Cn3cc4nc(-c5cccc(F)c5F)nc-4cn3)on2)n1` [Compound 180, 2-(2,3-Difluoro-phenyl)-5-[3-(4-methyl-thiazol-2-yl)-isoxazol-5-ylmethyl]-5H-imidazo[4,5-d]pyridazine], for which the inhibition at 10 µM is 83.3%.
As to `COC(=O)c1ccc(-c2cc(Cn3cc4nc(-c5cccc(F)c5F)nc-4cn3)on2)cc1` [Compound 209, 4-{5-[2-(2,3-difluoro-phenyl)-imidazo[4,5-d]pyridazin-5-ylmethyl]-isoxazol-3-yl}-benzoic acid methyl ester], the inhibition at 10 µM is 93.6%.
Take `COc1ccc(-c2cc(Cn3cc4nc(-c5cccc(F)c5F)nc-4cn3)on2)c(O)c1` [Compound 166, 2-{5-[2-(2,3-Difluoro-phenyl)-imidazo[4,5-d]pyridazin-5-ylmethyl]-isoxazol-3-yl}-5-methoxy-phenol]: the inhibition at 10 µM is 70.7%.
Same read-out and setting: as for `O=[N+]([O-])c1ccc(-c2cc(Cn3cc4nc(-c5cccc(F)c5F)nc-4cn3)on2)cc1` [Compound 199, 2-(2,3-Difluoro-phenyl)-5-[3-(4-nitro-phenyl)-isoxazol-5-ylmethyl]-5H-imidazo[4,5-d]pyridazine], the figure is 98.5%; as for `CCCCOc1ccc(-c2cc(Cn3cc4nc(-c5ccccc5F)nc-4cn3)on2)cc1` [Compound 106, 5-[3-(4-Butoxy-phenyl)-isoxazol-5-ylmethyl]-2-(2-fluoro-phenyl)-5H-imidazo[4,5-d]pyridazine], 99.7%.
